System: Primary Human Gingival Fibroblast (HGF)
Assay: In-vitro 2D tissue damage assay via Collagen-1 marker (Collagen-1 ELISA after TBHP challenge)
Assay type: cell-based
Conditions: 0.5% gel dilution 24 hr, 50 μM TBHP 1 hr, 24 hr in complete media; supernatant
Protocol: In vitro gingival 2D gingival fibroblast tissue damage/prevention was used to assess the effects of treatment with Inventive Compositions and Comparative compositions on collagen-1 ELISA assay.
The obtained tissues were kept in cold Dulbecco's modified Eagle's medium (DMEM, Gibco) with 10% fetal bovine serum and a cocktail of antibiotics and antimycotics. Next, the tissues were minced with a blade and spun down at 4° C. and 200×g for 5-10 minutes to separate and wash the pellets. Resuspended tissue explants were laid onto a 60 mm dish and kept in an incubator. Every 3-5 days during culture, fibroblasts grown from tissue explants were washed and continued under passage using 0.2% trypsin. Proliferation tests and cell damage recovery experiments were performed when the fibroblasts reached passages 3-10.
Primary Human gingival fibroblast (HGF) cell was maintained in a 37° C. incubator with 5% CO2 saturation. Dulbecco's modified Eagle's medium (DMEM, Gibco) containing 10% fetal calf serum, 1% penicillin-streptomycin was used as the complete culture medium, which was changed every 2-3 days.
1.8×10^5 Cells were seeded in a 6-well plate and cultured with complete medium in at 37° C. and 5% CO2 for 24 hr. […] The supernatant of cell culture was collected and analysed by Collagen-1 ELISA kit (CUSABIO).

Work on TGF-B [Positive control (TGF-B)] yielded a Collagen-1 of 155.59 ng/mL.
